Test results as given in patent USRE49735E1 (BRISTOL-MYERS SQUIBB COMPANY, priority 2010, dated 2023).
Values joined by “and” are separate entries in the source; they are usually repeats but may differ in a detail not shown here. Identical values can stand only once.

Molecular target: human mGluR5A (Homo sapiens, UniProt P41594)
Test: mGluR5 FLIPR Assay
Type: cell-based
Details: positive modulator activity; HEK293 (ZF) cells with human mGluR5A and rat GLAST; Ca++ response to ~EC10 glutamate

human mGluR5A, sequence (P41594 21-1180 isoform P41594-2): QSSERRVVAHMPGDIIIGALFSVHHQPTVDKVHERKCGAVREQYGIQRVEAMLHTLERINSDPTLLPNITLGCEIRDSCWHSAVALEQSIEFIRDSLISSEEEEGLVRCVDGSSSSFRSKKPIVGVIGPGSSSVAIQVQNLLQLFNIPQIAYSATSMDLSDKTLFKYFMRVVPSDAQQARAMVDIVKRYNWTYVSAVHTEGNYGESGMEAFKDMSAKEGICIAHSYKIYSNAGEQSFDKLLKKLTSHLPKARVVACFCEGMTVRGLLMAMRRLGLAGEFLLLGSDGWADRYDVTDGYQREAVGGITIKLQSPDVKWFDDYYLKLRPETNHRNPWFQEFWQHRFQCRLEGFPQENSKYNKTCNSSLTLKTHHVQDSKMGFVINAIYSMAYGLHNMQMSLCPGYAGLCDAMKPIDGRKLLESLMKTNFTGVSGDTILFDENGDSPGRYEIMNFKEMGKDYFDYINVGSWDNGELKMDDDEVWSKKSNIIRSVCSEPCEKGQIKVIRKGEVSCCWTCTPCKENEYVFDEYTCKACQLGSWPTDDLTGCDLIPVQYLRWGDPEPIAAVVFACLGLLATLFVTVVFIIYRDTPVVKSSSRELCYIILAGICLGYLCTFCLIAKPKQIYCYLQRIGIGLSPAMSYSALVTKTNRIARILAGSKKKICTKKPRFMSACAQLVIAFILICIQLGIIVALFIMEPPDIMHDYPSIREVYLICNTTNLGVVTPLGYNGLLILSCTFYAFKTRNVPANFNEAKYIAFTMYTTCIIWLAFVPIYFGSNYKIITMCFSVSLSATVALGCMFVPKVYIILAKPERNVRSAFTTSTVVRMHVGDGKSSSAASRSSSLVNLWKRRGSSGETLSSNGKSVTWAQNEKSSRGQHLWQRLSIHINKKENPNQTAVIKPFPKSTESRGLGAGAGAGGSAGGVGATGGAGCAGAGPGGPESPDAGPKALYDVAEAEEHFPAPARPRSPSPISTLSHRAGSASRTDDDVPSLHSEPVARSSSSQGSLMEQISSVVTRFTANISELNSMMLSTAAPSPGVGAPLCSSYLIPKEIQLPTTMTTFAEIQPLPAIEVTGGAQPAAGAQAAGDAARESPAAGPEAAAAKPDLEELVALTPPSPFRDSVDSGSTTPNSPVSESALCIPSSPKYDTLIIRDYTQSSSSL

Row | SMILES | EC50
1 | COC(=O)c1cccc(C#Cc2cccc([C@H]3NC(=O)O[C@@H]3c3cccc(OC)c3)c2)c1 [Example 267] | 100 to 1000 nM
2 | COc1cccc([C@H]2OC(=O)N[C@@H]2c2cccc(C#Cc3ccc(OC(F)(F)F)cc3)c2)c1 [Example 268] | > 1000 nM
3 | COc1cccc([C@H]2OC(=O)N[C@@H]2c2cccc(C#Cc3cccc(OC(F)(F)F)c3)c2)c1 [Example 269] | > 1000 nM
4 | O=C1N[C@H](c2nccc(C#Cc3ccccc3)n2)[C@@H](c2cccc(F)c2)O1 [Example 273] | > 3000 nM
5 | O=C1N[C@@H](c2nccc(C#Cc3ccccc3)n2)[C@H](c2cccc(F)c2)O1 [Example 274] | > 1000 nM
6 | O=C1N[C@H](c2ccnc(C#Cc3ccccc3)n2)[C@@H](c2cccc(F)c2)O1 [Example 275] | < 100 nM
7 | O=C1N[C@@H](c2ccnc(C#Cc3ccccc3)n2)[C@H](c2cccc(F)c2)O1 [Example 276] | 100 to 1000 nM and 468 nM
8 | O=C1N[C@H](c2cncc(C#Cc3ccccc3Cl)c2)[C@@H](c2cccc(F)c2F)O1 [Example 287] | 100 to 1000 nM
9 | C[C@@]1(c2cc(F)ccc2F)OC(=O)N[C@H]1c1cncc(C#Cc2ccccc2)c1 [Example 288] | 100 to 1000 nM
10 | C[C@]1(c2cc(F)ccc2F)OC(=O)N[C@@H]1c1cncc(C#Cc2ccccc2)c1 [Example 289] | < 100 nM
11 | C[C@@]1(c2cc(F)ccc2F)OC(=O)N[C@@H]1c1cncc(C#Cc2ccccc2)c1 [Example 290] | > 1000 nM
12 | C[C@]1(c2cc(F)ccc2F)OC(=O)N[C@H]1c1cncc(C#Cc2ccccc2)c1 [Example 291] | 100 to 1000 nM
13 | O=C1N[C@H](c2cncc(C#Cc3cnccn3)c2)[C@@H](c2c(F)cc(F)cc2F)O1 [Example 295] | > 1000 nM
14 | O=C1N[C@H](c2cncc(C#Cc3cnccn3)c2)[C@@H](c2ccc(F)c(F)c2F)O1 [Example 296] | < 100 nM
15 | O=C1N[C@H](c2cc(C#Cc3ccccc3)cnc2F)[C@@H](c2cccc(F)c2)O1 [Example 299, (4R,5R)-4-(2-Fluoro-5-(phenylethynyl)pyridin-3-yl)-5-(3-fluorophenyl)oxazolidin-2-one] | < 100 nM
16 | COc1ncc(C#Cc2ccccc2)cc1[C@H]1NC(=O)O[C@@H]1c1cccc(F)c1 [Example 300, (4R,5R)-5-(3-Fluorophenyl)-4-(2-methoxy-5-(phenylethynyl)pyridin-3-yl)oxazolidin-2-one] | < 100 nM
17 | O=C1N[C@H](c2cc(C#Cc3ccccc3)ncc2F)[C@@H](c2ccccc2F)O1 [Example 304, (4R,5R)-4-(5-Fluoro-2-(phenylethynyl)pyridin-4-yl)-5-(2-fluorophenyl)oxazolidin-2-one] | < 100 nM
18 | O=C1N[C@@H](c2cncc(C#Cc3ccccc3)c2)[C@H](c2ncco2)O1 [Example 338, (4S,5R)-5-(oxazol-2-yl)-4-(5-(phenylethynyl)pyridin-3-yl)oxazolidin-2-one] | > 1000 nM
19 | O=C1N[C@H](c2cncc(C#Cc3ccccc3)c2)[C@@H](c2ncco2)O1 [Example 339, (4R,5S)-5-(oxazol-2-yl)-4-(5-(phenylethynyl)pyridin-3-yl)oxazolidin-2-one] | > 1000 nM
20 | Cn1nccc1[C@@H]1OC(=O)N[C@H]1c1cncc(C#Cc2ccccc2)c1 [Example 341, (4S,5R)-5-(1-methyl-1H-pyrazol-5-yl)-4-(5-(phenylethynyl)pyridin-3-yl)oxazolidin-2-one] | > 1000 nM
21 | Cn1nccc1[C@H]1OC(=O)N[C@@H]1c1cncc(C#Cc2ccccc2)c1 [Example 342, (4R,5S)-5-(1-methyl-1H-pyrazol-5-yl)-4-(5-(phenylethynyl)pyridin-3-yl)oxazolidin-2-one] | < 100 nM
22 | N#Cc1ccc([C@H]2OC(=O)N[C@@H]2c2cncc(C#Cc3ccccc3)c2)cc1 [Example 365, 4-((4R,5R)-2-Oxo-4-(5-(phenylethynyl)pyridin-3-yl)oxazolidin-5-yl)benzonitrile] | < 100 nM
23 | O=C1NC(c2cccc(C#Cc3ccccc3)c2)C(c2cccc(O)c2)O1 [Example 380, (4R,5R)-5-(3-Hydroxyphenyl)-4-(3-phenylethynyl)phenyl)oxazolidin-2-one] | < 100 nM

The next lines start with the values.

Row | EC50 | SMILES
24 | < 100 nM and 21.5 nM | O=C1N[C@H](c2cncc(C#Cc3ccccc3)c2)[C@@H](c2cccc(F)c2F)O1 [Example 277]
25 | > 1000 nM | O=C1N[C@H](c2cncc(C#Cc3ccccc3)c2)[C@@H](c2c(F)cccc2F)O1 [Example 278]
26 | < 100 nM | O=C1N[C@H](c2cncc(C#Cc3ccc(F)cc3)c2)[C@@H](c2cc(F)ccc2F)O1 [Example 279]
27 | > 1000 nM | O=C1N[C@H](c2cncc(C#Cc3cccc(Cl)c3)c2)[C@@H](c2cccc(F)c2F)O1 [Example 280]
28 | > 1000 nM | O=C1N[C@H](c2cncc(C#Cc3cccc(Cl)c3)c2)[C@@H](c2c(F)cccc2F)O1 [Example 281]
29 | < 100 nM | O=C1N[C@H](c2cncc(C#Cc3ccccc3F)c2)[C@@H](c2cc(F)ccc2F)O1 [Example 282]
30 | < 100 nM | O=C1N[C@H](c2cncc(C#Cc3cccc(F)c3)c2)[C@@H](c2cc(F)ccc2F)O1 [Example 283]
31 | < 100 nM | O=C1N[C@H](c2cncc(C#Cc3ccccc3F)c2)[C@@H](c2cccc(F)c2F)O1 [Example 284]
32 | 100 to 1000 nM | O=C1N[C@H](c2cncc(C#Cc3cccc(F)c3)c2)[C@@H](c2cccc(F)c2F)O1 [Example 285]
33 | < 100 nM | O=C1N[C@H](c2cncc(C#Cc3ccc(F)cc3)c2)[C@@H](c2cccc(F)c2F)O1 [Example 286]
34 | < 100 nM | O=C1N[C@H](c2cncc(C#Cc3ccccc3)c2)[C@@H](c2c(F)cc(F)cc2F)O1 [Example 292]
35 | > 1000 nM | O=C1N[C@H](c2cncc(C#Cc3ccccc3)c2)[C@@H](c2cc(F)cc(F)c2F)O1 [Example 293]
36 | < 100 nM and 2.7 nM | O=C1N[C@H](c2cncc(C#Cc3ccccc3)c2)[C@@H](c2ccc(F)c(F)c2F)O1 [Example 294]
37 | < 100 nM | O=C1N[C@H](c2cc(C#Cc3ccccc3)ncc2F)[C@@H](c2cc(F)ccc2F)O1 [Example 301, (4R,5R)-5-(2,5-Difluorophenyl)-4-(5-fluoro-2-(phenylethynyl)pyridin-4-yl)oxazolidin-2-one]
38 | < 100 nM | O=C1N[C@H](c2cc(C#Cc3ccccc3)cnc2F)[C@@H](c2cc(F)ccc2F)O1 [Example 302]
39 | > 1000 nM | COc1ncc(C#Cc2ccccc2)cc1[C@H]1NC(=O)O[C@@H]1c1cc(F)ccc1F [Example 303, (4R,5R)-5-(2,5-Difluorophenyl)-4-(2-methoxy-5-(phenylethynyl)pyridin-3-yl)oxazolidin-2-one]
40 | 100 to 1000 nM | Cc1ccc(C#Cc2cncc([C@H]3NC(=O)O[C@@H]3c3cc(F)ccc3F)c2)cc1 [Example 381, (4R,5R)-5-(2,5-Difluorophenyl)-4-(5-(p-tolylethynyl)pyridin-3-yl)oxazolidin-2-one]
41 | 100 to 1000 nM and 537 nM | COc1ccc(C#Cc2cncc([C@H]3NC(=O)O[C@@H]3c3cc(F)ccc3F)c2)cc1 [Example 382, (4R,5R)-5-(2,5-difluorophenyl)-4-(5-((4-methoxyphenyl)ethynyl)pyridin-3-yl)oxazolidin-2-one]
42 | > 1000 nM | O=C1N[C@H](c2cncc(C#Cc3ccc(Cl)c(Cl)c3)c2)[C@@H](c2cc(F)ccc2F)O1 [Example 383, (4R,5R)-4-(5-((3,4-dichlorophenyl)ethynyl)pyridin-3-y1)-5-(2,5-difluorophenyl)oxazolidin-2-one]
43 | > 1000 nM | CC(C)(C)c1ccc(C#Cc2cncc([C@H]3NC(=O)O[C@@H]3c3cc(F)ccc3F)c2)cc1 [Example 384, (4R,5R)-4-(5-((4-tert-butylphenyl)ethynyl)pyridin-3-y1)-5-(2,5-difluorophenyl)oxazolidin-2-one]
44 | > 1000 nM | O=C1N[C@H](c2cncc(C#Cc3cccc(Cl)c3)c2)[C@@H](c2cc(F)ccc2F)O1 [Example 385, (4R,5R)-4-(5-((3-chlorophenyl)ethynyl)pyridin-3-yl)-5-(2,5-difluorophenyl)oxazolidin-2-one]
45 | > 1000 nM | O=C1N[C@H](c2cncc(C#Cc3cccc(C(F)(F)F)c3)c2)[C@@H](c2cc(F)ccc2F)O1 [Example 386, (4R,5R)-5-(2,5-difluorophenyl)-4-(5-((3-(trifluoromethyl)phenyl)ethynyl)pyridin-3-yl)oxazolidin-2-one]
46 | > 1000 nM | Cc1cccc(C#Cc2cncc([C@H]3NC(=O)O[C@@H]3c3cc(F)ccc3F)c2)c1 [Example 387, (4R,5R)-5-(2,5-difluorophenyl)-4-(5-(m-tolylethynyl)pyridin-3-yl)oxazolidin-2-one]
47 | 100 to 1000 nM | O=C1N[C@H](c2cncc(C#Cc3ccc(Cl)cc3)c2)[C@@H](c2cc(F)ccc2F)O1 [Example 388, (4R,5R)-4-(5-((4-chlorophenyl)ethynyl)pyridin-3-y1)-5-(2,5-difluorophenyl)oxazolidin-2-one]
48 | > 1000 nM | O=C1N[C@H](c2cncc(C#Cc3cc(Cl)cc(Cl)c3)c2)[C@@H](c2cc(F)ccc2F)O1 [Example 389, (4R,5R)-4-(5-((3,5-Dichlorophenyl)ethynyl)pyridin-3-yl)-5-(2,5-difluorophenyl)oxazolidin-2-one]
49 | 100 to 1000 nM | Cc1ccccc1C#Cc1cncc([C@H]2NC(=O)O[C@@H]2c2cc(F)ccc2F)c1 [Example 390, (4R,5R)-5-(2,5-difluorophenyl)-4-(5-(o-tolylethynyl)pyridin-3-yl)oxazolidin-2-one]
50 | > 1000 nM | N#Cc1ccc(C#Cc2cncc([C@H]3NC(=O)O[C@@H]3c3cc(F)ccc3F)c2)cc1 [Example 391, 4-((5-((4R,5R)-5-(2,5-difluorophenyl)-2-oxooxazolidin-4-yl)pyridin-3-yl)ethynyl)benzonitrile]
51 | < 100 nM | O=C1N[C@H](c2cncc(C#Cc3ccccc3Cl)c2)[C@@H](c2cc(F)ccc2F)O1 [Example 392, (4R,5R)-4-(5-((2-chlorophenyl)ethynyl)pyridin-3-yl)-5-(2,5-difluorophenyl)oxazolidin-2-one]
52 | > 1000 nM | O=C1N[C@H](c2cncc(C#Cc3ccnnc3)c2)[C@@H](c2cc(F)ccc2F)O1 [Example 393, (4R,5R)-5-(2,5-difluorophenyl)-4-(5-(pyridazin-4-ylethynyl)pyridin-3-yl)oxazolidin-2-one]
